“And” between values parts separate entries of the source, which are not always exact repeats. Identical values can stand only once.
Columns and labels:
mGluR3-3xTM4 = mGluR3-3xTM4 (Rattus norvegicus, UniProt P31422, F690A/G694A/INS669ASEIGTGFPFDPHYVEVLGERMHYVDVGPRDGTPVLFLHGNPTSSYVWRNIIPHVAPTHRCIAPDLIGMGKSDKPDLGYFFDDHVRFMDAFIEALGLEEVVLVIHDWGSALGFHWAKRNPERVKGIAFMEFIRPIPTWDEWPEFARETFQAFRTTDVGRKLIIDQNVFIEGTLPMGVVRPLTEVEMDHYREPFLNPVDREPLWRFPNELPIAGEPANIVALVEEYMDWLHQSPVPKLLFWGTPGVLIPPAEAARLAKSLPNCKAVDIGPGLNLLQEDNPDLIGSEIARWLSTLEISGLE/S686A); assay: Inter-TMD FRET sensor (HaloTag in ICL2), live cells; details: for FRET response amplitude: mGluR3-3xTM4, inter-TMD FRET
mGluR2-P778A = target: T1, mGluR2-P778A (Rattus norvegicus, UniProt P31421, P778A); assay: Calcium imaging in HEK 293 T cells; format: cell-based
T1 construct: we performed calcium imaging experiments with mutations in the full-length mGluR2 background; expressed in transfected cells; host or cells: HEK 293 T
Procedure: (§1) Approximately 30 ROIs were analyzed per movie.

mGluR2-F584I-G587T = target: T2, mGluR2-F584I-G587T (Rattus norvegicus, UniProt P31421, F584I/G587T); assay: Calcium imaging in HEK 293 T cells; format: cell-based
T2 construct: calcium imaging experiments with mutations in the full-length mGluR2 background; expressed in transfected cells; host or cells: HEK 293T
Procedure: as §1

mGluR2-AA695SV = target: T3, mGluR2-AA695SV (Rattus norvegicus, UniProt P31421, A695S/A696V); assay: Calcium imaging in HEK 293 T cells; format: cell-based
T3 construct: calcium imaging experiments with mutations in the full-length mGluR2 background; expressed in transfected cells; host or cells: HEK 293T
Procedure: as §1

mGluR2-A726S-G730I-A733T = target: T4, mGluR2-A726S-G730I-A733T (Rattus norvegicus, UniProt P31421, A726S/A733T/G730I); assay: Calcium imaging in HEK 293 T cells; format: cell-based
T4 construct: calcium imaging experiments with mutations in the full-length mGluR2 background; expressed in transfected cells; host or cells: HEK 293T
Procedure: as §1

mGluR2-C121A-I779A = target: T5, mGluR2-C121A-I779A (Rattus norvegicus, UniProt P31421, C121A/I779A); assay: SiMPull subunit counting in the presence of ligands; details: SNAP-mGluR2-C121A-I779A in presence of the ligand; single replicates per experiment day
T5 construct: expressed in transfected cells; host or cells: HEK 293 T (detergent lysate, pulled down by anti-HA antibody)

mGluR2-I779W = target: T6, mGluR2-I779W (Rattus norvegicus, UniProt P31421, I779W); assay: Calcium imaging in HEK 293 T cells; format: cell-based; design: scale not given here
T6 construct: we performed calcium imaging experiments with mutations in the full-length mGluR2 background; expressed in transfected cells; host or cells: HEK 293 T
Procedure: as §1

mGluR2 = mGluR2 (Rattus norvegicus, UniProt P31421, INS660ASEIGTGFPFDPHYVEVLGERMHYVDVGPRDGTPVLFLHGNPTSSYVWRNIIPHVAPTHRCIAPDLIGMGKSDKPDLGYFFDDHVRFMDAFIEALGLEEVVLVIHDWGSALGFHWAKRNPERVKGIAFMEFIRPIPTWDEWPEFARETFQAFRTTDVGRKLIIDQNVFIEGTLPMGVVRPLTEVEMDHYREPFLNPVDREPLWRFPNELPIAGEPANIVALVEEYMDWLHQSPVPKLLFWGTPGVLIPPAEAARLAKSLPNCKAVDIGPGLNLLQEDNPDLIGSEIARWLSTLEISGLE); assay: Inter-TMD FRET sensor (HaloTag in ICL2), live cells; details: mGluR2, inter-TMD FRET
mGluR3 = mGluR3 (Rattus norvegicus, UniProt P31422, INS669ASEIGTGFPFDPHYVEVLGERMHYVDVGPRDGTPVLFLHGNPTSSYVWRNIIPHVAPTHRCIAPDLIGMGKSDKPDLGYFFDDHVRFMDAFIEALGLEEVVLVIHDWGSALGFHWAKRNPERVKGIAFMEFIRPIPTWDEWPEFARETFQAFRTTDVGRKLIIDQNVFIEGTLPMGVVRPLTEVEMDHYREPFLNPVDREPLWRFPNELPIAGEPANIVALVEEYMDWLHQSPVPKLLFWGTPGVLIPPAEAARLAKSLPNCKAVDIGPGLNLLQEDNPDLIGSEIARWLSTLEISGLE); assay: as above; details: for FRET response amplitude: mGluR3, inter-TMD FRET
[1] = read-out: Glutamate EC50, inter-TMD FRET, normalized to saturating (1 mM) glutamate, unit inferred

mGluR3-3xTM4, sequence (P31422 with tags, fused parts or gaps with the stated changes): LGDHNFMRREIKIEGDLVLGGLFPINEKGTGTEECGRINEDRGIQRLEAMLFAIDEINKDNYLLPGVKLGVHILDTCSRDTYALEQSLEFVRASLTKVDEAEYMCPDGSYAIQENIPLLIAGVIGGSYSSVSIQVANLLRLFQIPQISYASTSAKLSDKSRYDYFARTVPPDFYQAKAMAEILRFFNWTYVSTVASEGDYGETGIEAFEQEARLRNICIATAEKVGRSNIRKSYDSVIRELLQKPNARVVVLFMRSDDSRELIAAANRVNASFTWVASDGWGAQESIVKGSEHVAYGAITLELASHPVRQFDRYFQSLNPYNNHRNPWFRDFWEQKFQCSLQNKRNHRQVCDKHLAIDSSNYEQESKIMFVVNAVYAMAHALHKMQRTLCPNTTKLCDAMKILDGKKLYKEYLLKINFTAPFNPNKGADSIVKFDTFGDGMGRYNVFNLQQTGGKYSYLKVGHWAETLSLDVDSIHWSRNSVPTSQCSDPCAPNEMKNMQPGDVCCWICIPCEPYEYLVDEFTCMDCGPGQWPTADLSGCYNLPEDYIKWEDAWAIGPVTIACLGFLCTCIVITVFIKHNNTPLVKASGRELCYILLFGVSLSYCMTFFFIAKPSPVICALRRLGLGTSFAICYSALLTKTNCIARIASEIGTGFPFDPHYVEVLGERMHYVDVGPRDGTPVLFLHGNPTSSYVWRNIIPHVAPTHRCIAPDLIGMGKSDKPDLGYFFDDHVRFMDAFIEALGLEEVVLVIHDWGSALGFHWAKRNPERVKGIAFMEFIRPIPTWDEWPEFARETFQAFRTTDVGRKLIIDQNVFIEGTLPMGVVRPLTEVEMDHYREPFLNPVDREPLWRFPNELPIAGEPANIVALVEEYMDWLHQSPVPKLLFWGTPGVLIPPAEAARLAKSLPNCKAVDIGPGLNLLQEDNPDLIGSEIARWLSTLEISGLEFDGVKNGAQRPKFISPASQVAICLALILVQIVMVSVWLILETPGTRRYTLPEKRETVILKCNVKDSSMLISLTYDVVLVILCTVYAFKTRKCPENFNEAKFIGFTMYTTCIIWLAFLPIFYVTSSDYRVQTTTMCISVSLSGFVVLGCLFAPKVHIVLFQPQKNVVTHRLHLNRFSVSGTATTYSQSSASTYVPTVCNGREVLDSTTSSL
mGluR2, sequence (P31421 with tags, fused parts or gaps with the stated changes): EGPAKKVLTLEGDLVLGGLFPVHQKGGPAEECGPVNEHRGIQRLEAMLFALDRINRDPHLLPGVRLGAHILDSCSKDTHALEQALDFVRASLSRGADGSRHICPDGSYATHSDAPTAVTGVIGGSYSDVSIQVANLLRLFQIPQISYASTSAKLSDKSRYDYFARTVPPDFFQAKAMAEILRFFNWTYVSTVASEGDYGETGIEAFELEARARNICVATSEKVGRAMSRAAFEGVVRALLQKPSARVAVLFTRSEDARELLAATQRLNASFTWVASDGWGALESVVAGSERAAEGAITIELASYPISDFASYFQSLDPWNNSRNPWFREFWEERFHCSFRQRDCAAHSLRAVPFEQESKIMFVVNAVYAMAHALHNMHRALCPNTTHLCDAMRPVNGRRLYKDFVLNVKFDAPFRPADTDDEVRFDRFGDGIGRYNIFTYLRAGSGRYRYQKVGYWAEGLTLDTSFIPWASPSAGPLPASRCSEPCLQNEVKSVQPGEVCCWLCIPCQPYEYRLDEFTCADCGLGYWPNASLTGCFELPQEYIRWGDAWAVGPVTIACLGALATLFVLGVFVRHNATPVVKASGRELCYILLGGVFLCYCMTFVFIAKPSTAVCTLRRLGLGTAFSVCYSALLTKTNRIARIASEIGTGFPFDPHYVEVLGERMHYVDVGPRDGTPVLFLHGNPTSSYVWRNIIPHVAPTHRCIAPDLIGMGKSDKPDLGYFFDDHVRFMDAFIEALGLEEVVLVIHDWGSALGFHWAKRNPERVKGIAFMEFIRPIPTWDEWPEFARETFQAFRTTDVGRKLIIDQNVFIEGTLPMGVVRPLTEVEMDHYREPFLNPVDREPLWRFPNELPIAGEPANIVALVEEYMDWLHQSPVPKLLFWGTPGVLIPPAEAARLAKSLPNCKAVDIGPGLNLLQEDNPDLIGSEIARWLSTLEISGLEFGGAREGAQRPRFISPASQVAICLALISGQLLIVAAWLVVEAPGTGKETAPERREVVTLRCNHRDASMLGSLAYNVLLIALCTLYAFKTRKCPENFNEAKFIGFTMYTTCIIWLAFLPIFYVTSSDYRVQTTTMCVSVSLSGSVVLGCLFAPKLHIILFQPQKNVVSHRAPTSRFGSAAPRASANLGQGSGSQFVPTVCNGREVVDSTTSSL
T2 sequence (P31421 19-872 F584I/G587T): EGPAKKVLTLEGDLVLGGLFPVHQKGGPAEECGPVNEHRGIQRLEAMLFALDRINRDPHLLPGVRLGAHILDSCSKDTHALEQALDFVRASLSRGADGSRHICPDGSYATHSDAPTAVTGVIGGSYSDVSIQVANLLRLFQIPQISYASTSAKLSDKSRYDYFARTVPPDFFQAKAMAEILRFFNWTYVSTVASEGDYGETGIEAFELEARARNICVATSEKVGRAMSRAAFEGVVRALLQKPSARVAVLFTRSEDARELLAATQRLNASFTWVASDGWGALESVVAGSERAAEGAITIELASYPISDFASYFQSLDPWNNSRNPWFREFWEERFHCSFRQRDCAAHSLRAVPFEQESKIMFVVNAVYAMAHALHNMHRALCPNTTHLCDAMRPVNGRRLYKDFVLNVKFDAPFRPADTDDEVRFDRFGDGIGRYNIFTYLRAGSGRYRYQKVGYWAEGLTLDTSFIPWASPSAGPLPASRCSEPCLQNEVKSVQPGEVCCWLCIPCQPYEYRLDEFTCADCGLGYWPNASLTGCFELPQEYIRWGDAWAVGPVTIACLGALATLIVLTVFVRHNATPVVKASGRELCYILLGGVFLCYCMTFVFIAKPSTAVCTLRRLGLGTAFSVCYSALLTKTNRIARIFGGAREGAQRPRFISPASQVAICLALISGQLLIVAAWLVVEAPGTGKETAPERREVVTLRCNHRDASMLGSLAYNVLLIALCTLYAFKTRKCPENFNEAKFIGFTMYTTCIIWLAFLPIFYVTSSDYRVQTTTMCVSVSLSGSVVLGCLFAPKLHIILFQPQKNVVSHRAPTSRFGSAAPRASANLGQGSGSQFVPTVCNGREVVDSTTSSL
T6 sequence (P31421 19-872 I779W): as the sequence (P31421 19-872 F584I/G587T) above, with I566F, T569G, I761W counted along it
T4 sequence (P31421 19-872 A726S/G730I/A733T): as the sequence (P31421 19-872 F584I/G587T) above, with I566F, T569G, A708S, G712I, A715T counted along it
T1 sequence (P31421 19-872 P778A): as the sequence (P31421 19-872 F584I/G587T) above, with I566F, T569G, P760A counted along it
T5 sequence (P31421 19-872 C121A/I779A): as the sequence (P31421 19-872 F584I/G587T) above, with C103A, I566F, T569G, I761A counted along it
T3 sequence (P31421 19-872 A695S/A696V): as the sequence (P31421 19-872 F584I/G587T) above, with I566F, T569G, A677S, A678V counted along it
mGluR3, sequence (P31422 with tags, fused parts or gaps with the stated changes): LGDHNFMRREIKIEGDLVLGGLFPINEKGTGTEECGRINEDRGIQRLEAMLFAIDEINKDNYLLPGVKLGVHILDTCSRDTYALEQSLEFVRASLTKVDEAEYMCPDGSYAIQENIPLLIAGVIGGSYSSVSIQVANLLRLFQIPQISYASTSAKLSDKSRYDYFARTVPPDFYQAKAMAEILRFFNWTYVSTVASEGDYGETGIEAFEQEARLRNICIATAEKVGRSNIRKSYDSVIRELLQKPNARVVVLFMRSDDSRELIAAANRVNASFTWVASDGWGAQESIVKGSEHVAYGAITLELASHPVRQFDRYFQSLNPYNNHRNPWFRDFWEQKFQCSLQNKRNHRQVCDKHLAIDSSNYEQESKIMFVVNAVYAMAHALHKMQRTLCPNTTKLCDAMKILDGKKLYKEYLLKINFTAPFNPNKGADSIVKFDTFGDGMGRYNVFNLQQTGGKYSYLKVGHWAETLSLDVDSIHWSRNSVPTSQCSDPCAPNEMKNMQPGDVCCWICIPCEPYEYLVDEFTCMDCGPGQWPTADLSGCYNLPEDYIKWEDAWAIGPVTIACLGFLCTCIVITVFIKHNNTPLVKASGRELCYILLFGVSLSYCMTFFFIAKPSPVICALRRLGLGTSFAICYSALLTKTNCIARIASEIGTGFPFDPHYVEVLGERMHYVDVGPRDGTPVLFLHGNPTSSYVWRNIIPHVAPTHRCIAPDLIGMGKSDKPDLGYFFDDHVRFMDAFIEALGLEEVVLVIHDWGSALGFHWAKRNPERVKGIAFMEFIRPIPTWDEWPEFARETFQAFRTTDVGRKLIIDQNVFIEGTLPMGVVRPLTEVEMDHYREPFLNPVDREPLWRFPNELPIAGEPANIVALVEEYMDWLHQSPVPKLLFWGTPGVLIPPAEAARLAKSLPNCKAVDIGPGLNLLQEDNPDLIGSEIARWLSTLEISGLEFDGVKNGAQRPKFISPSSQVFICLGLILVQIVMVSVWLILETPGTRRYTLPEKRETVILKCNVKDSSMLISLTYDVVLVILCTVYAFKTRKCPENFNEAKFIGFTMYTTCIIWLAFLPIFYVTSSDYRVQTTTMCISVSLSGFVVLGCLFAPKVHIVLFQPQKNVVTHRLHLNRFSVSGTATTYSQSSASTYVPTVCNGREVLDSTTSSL

## N[C@@H](CCC(=O)O)C(=O)O [glutamate]
mGluR3-3xTM4; Glutamate 1 nM
  FRET response amplitude: 0.00
mGluR3-3xTM4; Glutamate 100 nM
  FRET response amplitude: 0.20 and 0.12 and 0.17 and 0.16 and 0.13 and 0.21
mGluR3-3xTM4; Glutamate 1 uM
  FRET response amplitude: 0.69 and 0.42 and 0.65 and 0.66
mGluR3-3xTM4; Glutamate 10 uM
  FRET response amplitude: 0.75 and 0.99 and 0.89
mGluR3-3xTM4; Glutamate 100 uM
  FRET response amplitude: 0.80 and 0.96
mGluR3-3xTM4; Glutamate 1 mM
  FRET response amplitude: 1.00
mGluR3-3xTM4; [1]
  EC50: 560 ± 100 nM
mGluR2-P778A; Glutamate concentration 100 nM
  Calcium response amplitude: 0.00
mGluR2-P778A; Glutamate concentration 1 uM
  Calcium response amplitude: 0.48 and 0.50
mGluR2-P778A; Glutamate concentration 10 uM
  Calcium response amplitude: 0.94 and 0.87
mGluR2-P778A; Glutamate concentration 1 mM
  Calcium response amplitude: 1.00
mGluR2-F584I-G587T; Glutamate 100 nM
  Calcium response amplitude: 0.00
mGluR2-F584I-G587T; Glutamate 3 uM
  Calcium response amplitude: 0.62 and 0.57 and 0.48
mGluR2-F584I-G587T; Glutamate 10 uM
  Calcium response amplitude: 0.87 and 0.71
mGluR2-AA695SV; Glutamate 10 nM
  Calcium response amplitude: 0.00
mGluR2-AA695SV; Glutamate 100 nM
  Calcium response amplitude: 0.00
mGluR2-AA695SV; Glutamate 10 uM
  Calcium response amplitude: 0.72 and 0.97
mGluR2-AA695SV; Glutamate 100 uM
  Calcium response amplitude: 1.00
mGluR2-AA695SV; Glutamate 1 mM
  Calcium response amplitude: 1.00
mGluR2-A726S-G730I-A733T; Glutamate 100 nM
  Calcium response amplitude: 0.00
mGluR2-A726S-G730I-A733T; Glutamate 3 uM
  Calcium response amplitude: 0.71 and 0.60
mGluR2-A726S-G730I-A733T; Glutamate 10 uM
  Calcium response amplitude: 0.93 and 0.97 and 0.56
mGluR2-A726S-G730I-A733T; Glutamate 100 uM
  Calcium response amplitude: 1.00
mGluR2-A726S-G730I-A733T; Glutamate 1 mM
  Calcium response amplitude: 1.00
mGluR2-C121A-I779A
  % Dimerization: 54.00% and 69.67% and 69.76% and 51.05% and 59.66% and 56.67%
mGluR2-I779W; Glutamate concentration 10 nM
  Calcium response amplitude: 0.00
mGluR2-I779W; Glutamate concentration 5 uM
  Calcium response amplitude: 0.52 and 0.53
mGluR2-I779W; Glutamate concentration 10 uM
  Calcium response amplitude: 0.95 and 0.79 and 0.94 and 0.76
mGluR2-I779W; Glutamate concentration 100 uM
  Calcium response amplitude: 1.00
mGluR2-I779W; Glutamate concentration 1 mM
  Calcium response amplitude: 1.00
mGluR2; Glutamate 10 nM
  FRET response amplitude: 0.00
mGluR2; Glutamate 100 nM
  FRET response amplitude: 0.00
mGluR2; Glutamate 100 uM
  FRET response amplitude: 0.97 and 0.96 and 0.95 and 0.92 and 1.04 and 0.99 and 1.01
mGluR2; Glutamate 1 mM
  FRET response amplitude: 1.00
mGluR3; Glutamate 1 nM
  FRET response amplitude: 0.00
mGluR3; Glutamate 1 uM
  FRET response amplitude: 0.66 and 0.83 and 0.95 and 0.97 and 0.93 and 0.79 and 0.73
mGluR3; Glutamate 10 uM
  FRET response amplitude: 0.80 and 0.95 and 0.97 and 1.05 and 0.98 and 0.87
mGluR3; Glutamate 100 uM
  FRET response amplitude: 0.99 and 0.97 and 0.96 and 1.00
mGluR3; Glutamate 1 mM
  FRET response amplitude: 1.00
mGluR3; [1]
  EC50: 230 ± 80 nM
